{"source": "patent US20150362491A1", "about": "“METHODS AND ASSAYS RELATING TO RNF216” (THE GENERAL HOSPITAL CORPORATION, priority 2013, published 2015)", "key": {"[1]": {"system": "pituitary response to GnRH", "assay": "reproductive endocrine phenotyping with exogenous GnRH", "assay_type": "in vivo, human", "method": "Reproductive Endocrine Phenotyping. Subjects 2, 6, and 8 underwent blood sampling every 10-15 minutes for 3.25-12 h to examine the frequency, amplitude, and morphology of endogenous GnRH-induced luteinizing hormone (LH) pulse patterns. Pulses of LH secretion were identified using a modified version of the method of Santen and Bardin.^45-46 Subjects 1, 2, 6, and 8 received exogenous, pulsatile GnRH with monitoring of gonadotropin responses as described previously.^47-48 Hormone assays were performed as described in ref 48; the Second International Reference Preparation was used as the standard for LH and FSH."}, "[2]": {"system": "pituitary response to GnRH", "settings": "Subject 3, cited from earlier work"}, "[3]": {"system": "rnf216 and rnf216+otud4 (DMO) morphants", "assay": "in vivo zebrafish assay of neuronal survival and degeneration, SFN co-injected into morphants", "settings": "for morphants with optic tectum defects: 3 dpf", "method": "Zebrafish embryo injections. Zebrafish were maintained and mated according to standard procedures.^49 Wild-type zebrafish embryos were injected at the 1-4 cell stage with 1 nl diluted MO and 0.5% phenol red. […] For the epistatic interaction experiments, a cocktail containing 6 ng each of rnf216- and otud4-targeting MO was used.\n(§1) Zebrafish embryo phenotyping. Injected embryos were scored at 3 days post fertilization for microphthalmia by measuring the area of the eye cup. For immunofluorescence studies, embryos were fixed in Dent's fixative (80% methanol, 20% dimethylsulfoxide) overnight at 4° C. After rehydration with decreasing series of methanol in PBS, the embryos were washed with PBS, permeabilized with 10 μg/ml proteinase K, and postfixed with 4% PFA. Embryos were then washed twice with IF buffer (0.1% Tween-20, 1% BSA in 1×PBS) for 10 min at room temperature. After incubation in blocking solution (10% FBS, 1% BSA in 1×PBS) for 1 h at room temperature, embryos were incubated with anti-α acetylated tubulin (1:1000; T7451, Sigma-Aldrich), overnight at 4° C. After two washes in IF buffer for 10 min, embryos were incubated with Alexa Fluor goat anti-mouse IgG (1:1000; A21207, A11001, Invitrogen) for 1 h at room temperature. Image acquisition and analysis was performed using Nikon NIS-Elements Advanced Research software. For each test, 50-100 embryos were injected and scored by two investigators who were blind to the injection cocktail. All experiments were performed 2-3 times and statistical significance was calculated using Student's t-test.\nThis hypothesis will be tested in Rnf216^−/− and Otud4^−/− mice."}, "zebrafish embryos": {"system": "zebrafish embryos", "assay": "zebrafish embryo morpholino knock-down and human mRNA rescue phenotyping", "assay_type": "in vivo", "settings": "for organization of the cerebellum (axonal tracts) / size of the optic tectum: 3 d.p.f., anti-α acetylated tubulin staining", "method": "Zebrafish Investigation. All experiments were carried out with the approval of the Institutional Animal Care and Use Committee. Morpholino oligos (MO) for silencing of zebrafish rnf216 and otud4 were injected either alone or with wild-type (WT) or mutant human mRNA for RNF216, OTUD4, or both.\nMorpholino oligonucleotide design. Morpholino oligos were obtained from Gene Tools, LLC (Philomath, Oreg., USA). Reciprocal BLAST against the zebrafish genome identified a sole zebrafish ortholog of […] (ENSDARG00000087893, 59% similarity, 46% identity). The antisense MO used for the silencing of zebrafish rnf216 targeted the intron 5′ donor splice site of the gene: […] (SEQ ID NO: 7).\n(§2) Similar to rnf216, a sole ortholog of the human transcript for OTUD4 was identified in zebrafish (73% similarity, 61% identity). […] The MO for otud4 targeted the donor splice site of intron 2: […] (SEQ ID NO: 8).\nZebrafish embryo injections. Zebrafish were maintained and mated according to standard procedures.^49 Wild-type zebrafish embryos were injected at the 1-4 cell stage with 1 nl diluted MO and 0.5% phenol red. A dose of 6 ng of rnf216 or otud4-targeting MO was used as it gave the best rate of silencing and the minimum rate of mortality among the tested working dilutions (4-10 ng). For the epistatic interaction experiments, a cocktail containing 6 ng each of rnf216- and otud4-targeting MO was used.\nFor RNA rescue experiments, human wild-type or mutant RNF216 (NM_207116.2) and OTUD4 (NM_001102653.1) were cloned into the pCS2+ expression vector and transcribed in vitro using the SP6 Message Machine Kit (Ambion) to produce capped mRNA, and 200 pg of mRNA was injected for the rescue experiments.\nas §1"}, "[4]": {"system": "otud4 endogenous transcript", "assay": "efficiency of the morpholinos (splicing of endogenous transcript, gel)", "assay_type": "in vivo, zebrafish", "settings": "otud4 MO 4-10 ng; intron 5 retained", "method": "FIG. 8B depicts a gel of the results of injection of the otud4 MO (4-10 ng), which reduces normal splicing of the endogenous transcript by 90% and favors aberrant splicing resulting in a transcript where intron 5 (73 bp in size) is retained.\nas §2"}, "[5]": {"settings": "treatment of rnf216 and DMO morphants with SFN"}}, "data": [{"compound": "gonadotropin-releasing hormone (QHWSYGLRPG; Gonadoliberin-1; UniProt P01148 24-33, looked up) [GnRH]", "values": [{"measurement": "LH response to exogenous GnRH at a standard dose", "setting": "[1]; Subject 6", "result": "immediate robust increase in LH"}, {"measurement": "testicular volumes", "setting": "[1]; Subject 8, exogenous pulsatile GnRH 25 to 600 ng/kg q2 h over 2 y, from 2 mL", "result": 8, "unit": "mL"}, {"measurement": "gonadotropin responses to pulsatile exogenous GnRH over 7 days", "setting": "[1]; Subjects 1 and 2, bedridden, late in the course of disease", "result": "failed to exhibit gonadotropin responses"}, {"measurement": "LH after GnRH", "setting": "[2]; 90 min after GnRH, baseline 0.06 IU/L", "result": 5.8, "unit": "IU/L"}, {"measurement": "FSH after GnRH", "setting": "[2]; 120 min, baseline 0.14 IU/L", "result": 2.0, "unit": "IU/L"}]}, {"compound": "rnf216 MO: antisense morpholino silencing zebrafish rnf216, donor splice site: CAGAAAATAGTTTGTGCTTACACAT (SEQ ID NO: 7) (all phosphorodiamidate morpholino (PMO))", "values": [{"measurement": "morphants with optic tectum defects", "setting": "[3]; morphants without SFN", "result": 32, "unit": "%"}, {"measurement": "organization of the cerebellum (axonal tracts)", "setting": "zebrafish embryos", "result": "disorganization of axonal tracts in the cerebellum"}, {"measurement": "size of the optic tectum", "setting": "zebrafish embryos", "result": "reduction in size of the optic tectum"}]}, {"compound": "C[S@@+]([O-])CCCCN=C=S", "note": "[SFN, 1-isothio-cyanato-4(R)-methylsulfinylbutane]", "values": [{"measurement": "morphants with optic tectum defects", "setting": "[3]; DMO (rnf216+otud4) morphants co-injected with SFN, from 41% without SFN, p<0.001", "result": 15, "unit": "%"}, {"measurement": "cerebellar disorganization phenotype", "setting": "[3]; co-injection of SFN with DMO", "result": "failed to ameliorate"}, {"measurement": "cerebellar disorganization phenotype", "setting": "[3]; co-injection of SFN with rnf216 MO", "result": "failed to ameliorate"}, {"measurement": "morphants with optic tectum defects", "setting": "[3]; rnf216 morphants co-injected with SFN, from 32% without SFN, p<0.001", "result": 15, "unit": "%"}, {"measurement": "cerebellar degeneration phenotype (FIG. 10E)", "setting": "[3]; [5]", "result": "not the cerebellar degeneration phenotype"}, {"measurement": "optic tectum phenotype (FIG. 10D)", "setting": "[3]; [5]", "result": "rescues the optic tectum phenotype"}]}, {"compound": "human RNF216 mRNA: capped wild-type human RNF216 (NM—207116.2) mRNA transcribed in vitro, 200 pg injected", "values": [{"measurement": "rescue of the phenotypes induced by double MO injection", "setting": "zebrafish embryos; co-injection of mRNA with double MO", "result": "rescued all phenotypes"}, {"measurement": "rescue of the tectal phenotype", "setting": "zebrafish embryos; co-injection of mRNA with rnf216 MO", "result": "fully rescued"}]}, {"compound": "otud4 MO: splice-blocking morpholino against zebrafish otud4: TACCCGAAGGAATTTGCGCACCATT (SEQ ID NO: 8) (all phosphorodiamidate morpholino (PMO))", "values": [{"measurement": "reduction of normal splicing of the endogenous transcript", "setting": "[4]", "result": 90, "unit": "%"}, {"measurement": "organization of the cerebellum (axonal tracts)", "setting": "zebrafish embryos", "result": "cerebellar defects"}, {"measurement": "size of the optic tectum", "setting": "zebrafish embryos", "result": "reduction in size of the optic tectum"}]}]}
